In US8946266B2, “Substituted triazole and imidazole derivatives as gamma secretase modulators” (Janssen Pharmaceuticals, Inc., priority 2009, dated 2015):

Experiments:
Aβtotal = assay: γ-secretase-modulating activity, Method 1: Aβtotal sandwich ELISA in supernatant of SKNBE2 cells carrying APP 695-wild type; format: cell-based; details: Table 3a, 18 h, averaged IC50 values
Description: Pharmacology A) Screening of the Compounds of the Invention for γ-Secretase-Modulating Activity A1) Method 1
Screening was carried out using SKNBE2 cells carrying the APP 695-wild type, grown in Dulbecco's Modified Eagle's Medium/Nutrient mixture F-12 (DMEM/NUT-mix F-12) (HAM) provided by Gibco (cat no. 31330-38) containing 5% Serum/Fe supplemented with 1% non-essential amino acids. Cells were grown to near confluency.
The screening was performed using the assay as described in Citron et al (1997) Nature Medicine 3: 67. Briefly, cells were plated in a 96-well plate at about 10^5 cells/ml one day prior to addition of compounds. Compounds were added to the cells in Ultraculture (Lonza, BE12-725F) supplemented with 1% glutamine (Invitrogen, 25030-024) for 18 h. The media were assayed by two sandwich ELISAs, for Aβ42 and Aβtotal. Toxicity of the compounds was assayed by WST-1 cell proliferation reagent (Roche, 1 644 807) according to the manufacturer's protocol.
To quantify the amount of Aβtotal in the cell supernatant, samples and standards were added to a 6E10-coated plate. The plate was allowed to incubate overnight at 4° C. in order to allow formation of the antibody-amyloid complex. Following this incubation and subsequent wash steps a selective anti-Aβ-antibody conjugate (biotinylated 4G8) was added and incubated for a minimum of 1 h in order to allow formation of the antibody-Amyloid-antibody-complex. After incubation and appropriate wash steps, a Streptavidine-Peroxidase-Conjugate was added, followed 30 minutes later by an addition of Quanta Blu fluorogenic peroxidase substrate according to the manufacturer's instructions (Pierce Corp., Rockford, Ill.).

Aβ42 = assay: In vivo efficacy, Method 1: brain soluble Aβ42 lowering 4 h after a single oral dose, ELISA (Table 4a); design: species or system mouse; details: dose 30 mg/kg oral dosing
From the text: To determine whether acute administration of an Aβ42 lowering agent would reduce Aβ42 levels in vivo, non-transgenic rodents, e.g. mice or rats were used. Alternatively, two to three month old Tg2576 mice expressing APP695 containing the “Swedish” variant can be used or a transgenic mouse model developed by Dr. Fred Van Leuven (K.U. Leuven, Belgium) and co-workers, with neuron-specific expression of a clinical mutant of the human amyloid precursor protein [V717I] (Moechars et al., 1999 J. Biol. Chem. 274, 6483). Young transgenic mice have high levels of Aβ in the brain but no detectable Aβ deposition. At approximately 6-8 months of age, the transgenic mice start to display spontaneous, progressive accumulation of β-amyloid (Aβ) in the brain, eventually resulting in amyloid plaques within the subiculum, hippocampus and cortex. Animals treated with the Aβ42 lowering agent were examined and compared to those untreated or treated with vehicle and brain levels of soluble Aβ42 and total Aβ would be quantitated by standard techniques, for example, using ELISA. Treatment periods varied from hours (h) to days and were adjusted based on the results of the Aβ42 lowering once a time course of onset of effect could be established.
A typical protocol for measuring Aβ42 lowering in vivo is shown but it is only one of many variations that could be used to optimize the levels of detectable Aβ. For example, Aβ42 lowering compounds were formulated in 20% of Captisol® (a sulfobutyl ether of β-cyclodextrin) in water or 20% hydroxypropyl cyclodextrin. The Aβ42 lowering agents were administered as a single oral dose or by any acceptable route of administration to overnight fasted animals. After 4 h, the animals were sacrificed and Aβ42 levels were analysed.
Blood was collected by decapitation and exsanguinations in EDTA-treated collection tubes. Blood was centrifuged at 1900 g for 10 minutes (min) at 4° C. and the plasma recovered and flash frozen for later analysis. The brain was removed from the cranium and hindbrain. The cerebellum was removed and the left and right hemisphere were separated. The left hemisphere was stored at −18° C. for quantitative analysis of test compound levels. The right hemisphere was rinsed with phosphate-buffered saline (PBS) buffer and immediately frozen on dry ice and stored at −80° C. until homogenization for biochemical assays.
Mouse brains were resuspended in 10 volumes of 0.4% DEA (diethylamine)/50 mM NaCl pH 10 (for non-transgenic animals) or 0.1% 3-[(3-cholamidopropyl)-dimethyl-ammonio]-1-propanesulfonate (CHAPS) in tris buffered saline (TBS) (for transgenic animals) containing protease inhibitors (Roche-11873580001 or 04693159001) per gram of tissue, e.g. for 0.158 g brain, add 1.58 ml of 0.4% DEA. All samples were sonicated for 30 seconds on ice at 20% power output (pulse mode). Homogenates were centrifuged at 221.300×g for 50 min. The resulting high speed supernatants were then transferred to fresh tubes and were optionally further purified before the next step. A portion of the supernatant was neutralized with 10% 0.5 M Tris-HCl and this was used to quantify Aβtotal.
The obtained supernatants were purified with Water Oasis HLB reverse phase columns (Waters Corp., Milford, Mass.) to remove non-specific immunoreactive material from the brain lysates prior subsequent Aβ detection. Using a vacuum manifold, all solutions were passed through the columns at a rate of approximately 1 ml per min, so the vacuum pressure was adjusted accordingly throughout the procedure. Columns were preconditioned with 1 ml of 100% MeOH, before equilibration with 1 ml of H2O, Non-neutralized brain lysates were loaded onto the columns. The loaded samples were then washed twice with the first wash performed with 1 ml of 5% MeOH, and the second wash with 1 ml of 30% MeOH. Finally, the Aβ was eluted from the columns and into 100×30 mm glass tubes, with a solution of 90% MeOH with 2% NH4OH. […]

IC50 (Aβtotal; Homo sapiens) | IC50 (Aβtotal) | SMILES | Aβ42 (% Ctrl) _Mean (Aβ42)
> 30 µM |  | COc1cc(-c2nc(-c3ccccc3)n(C)n2)ccc1-n1cnc(C)c1 [Compound 9] | 24 % Ctrl
> 3 µM |  | COc1cc(-c2nc(C)c(-c3ccccc3)[nH]2)ccc1-n1cnc(C)c1 [Compound 11] | 4 % Ctrl
 | 11.5 µM | COc1cc(-c2nc(Nc3ccc(F)cc3C(F)(F)F)n(C)n2)ccc1-n1cnc(C)c1 [Compound 15] | 42 % Ctrl
 |  | COc1cc(-c2nc(Nc3cccc(C(F)(F)F)c3)n(C)n2)ccc1-n1cnc(C)c1 [Compound 146] | 27 % Ctrl
